Tested on: Hs578T complex spheroid growth, percent test/control
Test: Anticancer human tumor Hs578T cell line growth inhibition [AhR];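 also: luminescent viability signal as a proxy for spheroid growth; spheroids exposed to agents for one week after three days of growth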
Details: for IC50: curve of first compound; for viability, T/C: stronger effect = lower value
Excerpt: Multicellular complex tumor spheroid response to aryl hydrocarbon receptor antagonists in combination with a variety of drugs and investigational agents in selected tumor cell lines
The current study was undertaken to assess response to aryl hydrocarbon receptor antagonists in combination with standard-of-care drugs and investigational agents in solid tumor complex spheroid models. Complex spheroids include a stromal component modeled by human endothelial cells (HUVEC) and fibroblasts modeled by human mesenchymal stem cells (MSCs). The concentration ranges selected for each drug and investigational agent were based upon clinically achievable concentrations if the clinical Cmax of the agent was known.
Compounds. The drugs and investigational agents: BAY 2416964 (NSC825713), GNF351 (NSC835774), CH-223191 (NSC835775), CPI-455 (NSC825282), aza-TdCyd (NSC777586), decitabine (NSC127716), belinostat (NSC758774), entinostat (NSC756642), pevonedistat (NSC761192), tazemetostat (NSC777109), talazoparib (NSC765396), olaparib (NSC753686), selinexor (NSC780203), nedisertib (M3814, NSC802822), bortezomib (NSC756655), venetoclax (NSC766270), doxorubicin (NSC123127), elimusertib (BAY189344, NSC800525), ceralasertib (AZD6738, NSC777638), TAK-243 (NSC785004), alisertib (NSC759677), etoposide (NSC141540), topotecan (NSC609699), eribulin (NSC707389), gemcitabine (NSC613327), carboplatin (NSC241240), cisplatin (NSC119875), and SN-38 (NSC673596) were obtained from the National Cancer Institute (NCI) Developmental Therapeutics Program Chemical Repository (32). The FDA-approved anticancer drug set is available from the Developmental Therapeutics Program at https://dtp.cancer.gov/organization/dscb/obtaining/available plates.htm. […] The stock solutions were prepared in dimethyl sulfoxide (DMSO, Sigma-Aldrich, St. Louis, MO, cat. D2650), except for the platinum compounds which were prepared in saline (Quality Biological, Gaithersburg, MD, cat. 114-055-101), at 800-fold the tested concentration and stored at -70 degrees C prior to their use. All drugs and investigational agents were tested over a range starting from a high concentration at or near the clinical Cmax and decreasing in half-log increments. If the clinical Cmax for an agent had not been determined, the highest concentration tested was 10 microM (Table 1).
Cell Culture. All cells were maintained in an incubator at 37 degrees C and 5% CO2 with 95% humidity. The PDC lines were cultured according to standard operating procedures established by the NCI PDMR (https://pdmr.cancer.gov). Briefly, all PDCs were thawed and cultured in Matrigel-coated flasks prepared with a working solution of 1X Ham's F-12 nutrient mix, without supplementation (Invitrogen, Waltham, MA, cat. 11765054), 100 U/mL penicillin-streptomycin (Invitrogen, cat. 15140122), and 2.5% Matrigel (Corning Inc., Corning, NY, cat. 354248) for the first three passages. All PDCs were cultured in complete DMEM/F-12 media containing advanced DMEM/F-12 (Invitrogen, cat. 12634028), 4.9% defined fetal bovine serum, heat inactivated (HyClone Laboratories Inc., Logan, UT, cat. SH30070.03HI), 389 ng/mL hydrocortisone (Sigma-Aldrich, cat. H4001), 9.7 ng/mL human EGF recombinant protein (Invitrogen, cat. PHG0313), 23.4 microg/mL adenine (Sigma-Aldrich, cat. A2786), 97.3 U/mL penicillin-streptomycin (Invitrogen, cat. 15140122), 1.9 mM L-glutamine (Invitrogen, cat. 25030081), and 9.7 microM Y-27632 dihydrochloride (Tocris Bioscience, Bristol, United Kingdom, cat. 1254). The PDCs were cultured in complete DMEM/F12 media without 10 microM Y-27632 dihydrochloride for at least two passages prior to the screen. The established cell lines NCI-H1341 and […] were cultured in DMEM/F-12, HEPES (Invitrogen, cat. 11330032), 5% defined fetal bovine serum (HyClone Laboratories Inc., cat. SH30070.03), ITS premix universal culture supplement [insulin (5 microg/mL), transferrin (5 microg/mL), and selenious acid (5 ng/mL)] […]

[1] = second compound 0.1 µM, first compound 0.0316 µM
[2] = second compound 0.1 µM, first compound 0.1 µM
[3] = second compound 0.1 µM, first compound 0.316 µM
[4] = second compound 0.1 µM, first compound 1 µM
[5] = second compound 0.1 µM, first compound 3.16 µM
[6] = second compound 0.1 µM, first compound 10 µM
[7] = second compound 0.316 µM, first compound 0.0316 µM
[8] = second compound 0.316 µM, first compound 0.1 µM
[9] = second compound 0.316 µM, first compound 0.316 µM
[10] = second compound 0.316 µM, first compound 1 µM
[11] = second compound 0.316 µM, first compound 3.16 µM
[12] = second compound 0.316 µM, first compound 10 µM
[13] = second compound 1 µM, first compound 0.0316 µM
[14] = second compound 1 µM, first compound 0.1 µM
[15] = second compound 1 µM, first compound 0.316 µM
[16] = second compound 1 µM, first compound 1 µM
[17] = second compound 1 µM, first compound 3.16 µM
[18] = second compound 1 µM, first compound 10 µM
[19] = second compound 3.16 µM, first compound 0.0316 µM
[20] = second compound 3.16 µM, first compound 0.1 µM
[21] = second compound 3.16 µM, first compound 0.316 µM
[22] = second compound 3.16 µM, first compound 1 µM
[23] = second compound 3.16 µM, first compound 3.16 µM
[24] = second compound 3.16 µM, first compound 10 µM
[25] = second compound 10 µM, first compound 0.0316 µM
[26] = second compound 10 µM, first compound 0.1 µM
[27] = second compound 10 µM, first compound 0.316 µM
[28] = second compound 10 µM, first compound 1 µM
[29] = second compound 10 µM, first compound 3.16 µM
[30] = second compound 10 µM, first compound 10 µM

IC50 (second compound 0.1 µM) [µM]	IC50 (second compound 0.316 µM) [µM]	IC50 (second compound 1 µM) [µM]	IC50 (second compound 3.16 µM) [µM]	IC50 (second compound 10 µM) [µM]	Structure (SMILES)	viability, T/C [1] [%]	viability, T/C [2] [%]	viability, T/C [3] [%]	viability, T/C [4] [%]	viability, T/C [5] [%]	viability, T/C [6] [%]	viability, T/C [7] [%]	viability, T/C [8] [%]	viability, T/C [9] [%]	viability, T/C [13] [%]	viability, T/C [14] [%]	viability, T/C [19] [%]	viability, T/C [20] [%]	viability, T/C [25] [%]	viability, T/C [26] [%]	further results
> 10	> 10	> 10	> 10	> 10	CC1(C)CCC(CN2CCN(c3ccc(C(=O)NS(=O)(=O)c4ccc(NCC5CCOCC5)c([N+](=O)[O-])c4)c(Oc4cnc5[nH]ccc5c4)c3)CC2)=C(c2ccc(Cl)cc2)C1 + CC(CO)NC(=O)c1cc(-c2ccc(Cl)cc2)nn(-c2cnn(C)c2)c1=O	109	107	107	101	106	84.3	110	99.7	110	115	122	108	111	117	96.9	viability, T/C [10]: 91.2%; viability, T/C [11]: 93%; viability, T/C [12]: 96.3%; viability, T/C [15]: 114%; viability, T/C [16]: 98.3%; viability, T/C [17]: 109%; viability, T/C [18]: 80%; viability, T/C [21]: 110%; viability, T/C [22]: 99.7%; viability, T/C [23]: 102%; viability, T/C [24]: 88.7%; viability, T/C [27]: 79.4%; viability, T/C [28]: 86%; viability, T/C [29]: 87.1%; viability, T/C [30]: 91.8%
> 10	> 10	> 10	> 10	> 10	COc1cc(Nc2ncc3c(n2)-c2ccc(Cl)cc2C(c2c(F)cccc2OC)=NC3)ccc1C(=O)O + CC(CO)NC(=O)c1cc(-c2ccc(Cl)cc2)nn(-c2cnn(C)c2)c1=O	99.8	92.3	104	99.1	93.3	59.6	94.6	96	100	102	102	95.5	91.6	84.9	84	viability, T/C [10]: 93.4%; viability, T/C [11]: 84.4%; viability, T/C [12]: 51.8%; viability, T/C [15]: 114%; viability, T/C [16]: 99%; viability, T/C [17]: 85.3%; viability, T/C [18]: 68.6%; viability, T/C [21]: 101%; viability, T/C [22]: 102%; viability, T/C [23]: 84.7%; viability, T/C [24]: 67.3%; viability, T/C [27]: 93.6%; viability, T/C [28]: 97.8%; viability, T/C [29]: 83.5%; viability, T/C [30]: 72.3%
> 0.1	> 0.1	> 0.1	> 0.1	> 0.1	Cn1ncnc1C1c2n[nH]c(=O)c3cc(F)cc(c23)NC1c1ccc(F)cc1 (stereo not given) + CC(CO)NC(=O)c1cc(-c2ccc(Cl)cc2)nn(-c2cnn(C)c2)c1=O	117	120					118	108		117	109	118	118	109	118	viability, T/C (second compound 0.1 µM, first compound 0.000316 µM): 111%; viability, T/C (second compound 0.1 µM, first compound 0.001 µM): 118%; viability, T/C (second compound 0.1 µM, first compound 0.00316 µM): 117%; viability, T/C (second compound 0.1 µM, first compound 0.01 µM): 109%; viability, T/C (second compound 0.316 µM, first compound 0.000316 µM): 110%; viability, T/C (second compound 0.316 µM, first compound 0.001 µM): 115%; viability, T/C (second compound 0.316 µM, first compound 0.00316 µM): 125%; viability, T/C (second compound 0.316 µM, first compound 0.01 µM): 118%; viability, T/C (second compound 1 µM, first compound 0.000316 µM): 112%; viability, T/C (second compound 1 µM, first compound 0.001 µM): 131%; viability, T/C (second compound 1 µM, first compound 0.00316 µM): 127%; viability, T/C (second compound 1 µM, first compound 0.01 µM): 109%; viability, T/C (second compound 3.16 µM, first compound 0.000316 µM): 108%; viability, T/C (second compound 3.16 µM, first compound 0.001 µM): 127%; viability, T/C (second compound 3.16 µM, first compound 0.00316 µM): 140%; viability, T/C (second compound 3.16 µM, first compound 0.01 µM): 114%; viability, T/C (second compound 10 µM, first compound 0.000316 µM): 95.1%; viability, T/C (second compound 10 µM, first compound 0.001 µM): 110%; viability, T/C (second compound 10 µM, first compound 0.00316 µM): 104%; viability, T/C (second compound 10 µM, first compound 0.01 µM): 95.6%
0.914	0.995	1.24	2.01	2.32	NS(=O)(=O)OCC1CC(n2ccc3c(NC4CCc5ccccc54)ncnc32)CC1O (stereo not given) + CC(CO)NC(=O)c1cc(-c2ccc(Cl)cc2)nn(-c2cnn(C)c2)c1=O	104	95.3	69.9	47.6	41.4	33	114	81	75	109	90.6	119	91.3	95.1	96.6	viability, T/C [10]: 50%; viability, T/C [11]: 30.1%; viability, T/C [12]: 29.4%; viability, T/C [15]: 77.9%; viability, T/C [16]: 52.7%; viability, T/C [17]: 34.7%; viability, T/C [18]: 27.8%; viability, T/C [21]: 90.2%; viability, T/C [22]: 55.9%; viability, T/C [23]: 41.6%; viability, T/C [24]: 34.8%; viability, T/C [27]: 88.9%; viability, T/C [28]: 65.2%; viability, T/C [29]: 44.1%; viability, T/C [30]: 40.8%
